# Test results taken from paper PMC6522510 (Nature Communications, 2019).
# Where a name gives a salt, the structure may show the parent alone. Read-outs that look alike come from different tables or passages of the source.
# Key:
# Parameters in all cases: species or system AML cell lines (8); Primary HTS, single concentration about 10 uM, Cell Titer Glo viability; log10 luminescence, per cent inhibition relative to cycloheximide control
# Conditions in all cases: 72 h, inhibitor
# [1] = system: CHRF288-11
# [2] = system: U937
# [3] = system: MV4-11
# [4] = system: M07e
# [5] = system: CMK
# [6] = system: ML-2
# [7] = system: MOLM-13
# [8] = system: CMS
# [9] = relative to cycloheximide control, log10 luminescence
# [10] = relative to cycloheximide control, log10 luminescence, CHRF288-11 %inh, 10 µM
# [11] = relative to cycloheximide control, log10 luminescence, U937 %inh, 10 µM
# [12] = relative to cycloheximide control, log10 luminescence, MV4-11 %inh, 10 µM
# [13] = relative to cycloheximide control, log10 luminescence, M07e %inh, 10 µM
# [14] = relative to cycloheximide control, log10 luminescence, CMK %inh, 10 µM
# [15] = relative to cycloheximide control, log10 luminescence, ML-2 %inh, 10 µM
# [16] = relative to cycloheximide control, log10 luminescence, MOLM-13 %inh, 10 µM
# [17] = relative to cycloheximide control, log10 luminescence, CMS %inh, 10 µM
Compound,"CHRF288-11 %inh [1, 9] [%]","U937 %inh [2, 9] [%]","MV4-11 %inh [3, 9] [%]","M07e %inh [4, 9] [%]","CMK %inh [5, 9] [%]","ML-2 %inh [6, 9] [%]","MOLM-13 %inh [7, 9] [%]","CMS %inh [8, 9] [%]",further results
Nc1c(C(=O)c2cccc(OC[C@H](O)CO)c2)cnn1-c1ccc(F)cc1 [SJ000581020-1],2.337,0.3347,0.9707,2.292,3.324,2.034,0.004587,0.9092,–
"C[C@H](CS)C(=O)N1CCC[C@H]1C(=O)O [SJ000286908-10, CAPTOPRIL]",–,–,–,–,–,–,–,–,"CHRF288-11 %inh [1, 10]: -3.972%; U937 %inh [2, 11]: 51.26%; MV4-11 %inh [3, 12]: -0.07613%; M07e %inh [4, 13]: -1.533%; CMK %inh [5, 14]: 3.343%; ML-2 %inh [6, 15]: -0.772%; MOLM-13 %inh [7, 16]: 0.8092%; CMS %inh [8, 17]: -3.33%"
"C[C@]12CC[C@@H]3c4ccc(O)cc4CC[C@H]3[C@@H]1CCC2=O [SJ000285760-7, ESTRONE]",–,–,–,–,–,–,–,–,"CHRF288-11 %inh [1, 10]: -1.204%; U937 %inh [2, 11]: 0.9734%; MV4-11 %inh [3, 12]: 2.184%; M07e %inh [4, 13]: 1.639%; CMK %inh [5, 14]: 0.6093%; ML-2 %inh [6, 15]: 0.07519%; MOLM-13 %inh [7, 16]: -0.4054%; CMS %inh [8, 17]: 0.8051%"
"COCCCC/C(=N\OCCN)c1ccc(C(F)(F)F)cc1 [SJ000287487-5, FLUVOXAMINE MALEATE]",7.313,7.709,0.9693,1.409,-1.719,4.445,5.945,-2.805,–
"COc1cc(/C=N/Nc2ncnc3c2cnn3C(C)C)ccc1O [SJ000573267-1, T237/25/6]",–,–,–,–,–,–,–,–,CHRF288-11 %inh ([1]; 10 µM): 29.61%; U937 %inh ([2]; 10 µM): 8.888%; MV4-11 %inh ([3]; 10 µM): 40.62%; M07e %inh ([4]; 10 µM): 6.424%; CMK %inh ([5]; 10 µM): 41.95%; ML-2 %inh ([6]; 10 µM): 8.895%; MOLM-13 %inh ([7]; 10 µM): 52.9%; CMS %inh ([8]; 10 µM): 9.426%
"C=CC[C@@H]1[C@H](O)CC[C@@]2(C)[C@H]1CC[C@@H]1[C@@H]2CC[C@]2(C)[C@@H]([C@H](C)CCCC(C)C)CC[C@@H]12 [SJ000561065-1, LY 295427]",-1.753,1.28,0.6492,2.452,-3.189,0.971,1.105,-1.154,–
"O=C(O)c1cc2cc(O)c(O)cc2c(C(=O)c2ccc(O)c(O)c2)n1 [SJ000773184-1, NBI-31772]",-3.882,2.592,0.9533,0.05281,20.66,4.963,2.784,0.1786,–
Cn1c(=O)c(Oc2ccc(F)cc2F)cc2cnc(NC3CCC(O)CC3)nc21 (stereo not shown) [SJ000581046-1],5.265,2.264,-0.7465,1.519,-4.641,1.601,1.486,-2.545,–
"CC(C)c1ccc(Nc2nccc(-c3cnn4ncccc34)n2)cc1 [SJ000573192-1, U16419/190/2]",27.16,82.47,84.54,49.73,58.79,59.67,111.4,101.8,–
C=CC1=C(C(=O)O)N2C(=O)[C@@H](NC(=O)/C(=N\O)c3csc(N)n3)[C@H]2SC1 [SJ000286082-3],4.774,3.234,0.05121,3.525,1.925,2.212,11.38,3.32,–
COc1ccc(O)c(C(=O)c2ccc(C(=O)N[C@@H]3CCCNC[C@H]3NC(=O)c3ccncc3)cc2)c1F [SJ000580985-1],19.87,23.19,52.11,4.451,12.77,46.48,32.45,1.516,–
"COC(=O)Nc1nc2ccc(Sc3ccc(NC(=O)Nc4cc(C(F)(F)F)ccc4F)cc3)cc2[nH]1 [SJ000573029-1, T229/195/1]",10.2,5.795,2.362,3.372,38.89,2.621,17.62,-0.01293,–
"CS(=O)(=O)Nc1ccc(-c2cc(-c3ccccc3)cc(C(N)=O)c2N)cc1 [SJ000573108-1, R12070/86/1]",2.153,-2.496,0.1875,0.06792,-4.619,-0.5203,-0.8297,-2.317,–
Cn1cc(C2=C(c3c[nH]c4ccccc34)C(=O)NC2=O)c2ccccc21 [SJ000581069-1],37,53.14,15.94,40.86,44.1,39.66,79.5,13.88,–
Cn1cc(C2=C(c3cn(C)c4cc(Cl)ccc34)C(=O)NC2=O)c2ccccc21 [SJ000581078-1],127,87.46,84.42,100,127.5,61.36,85.69,103.6,–
"O=c1oc2ccccc2c(O)c1Cc1c(O)c2ccccc2oc1=O [SJ000285189-6, DICUMAROL]",–,–,–,–,–,–,–,–,"CHRF288-11 %inh [1, 10]: 3.41%; U937 %inh [2, 11]: -0.6405%; MV4-11 %inh [3, 12]: 0.4793%; M07e %inh [4, 13]: 0.4208%; CMK %inh [5, 14]: -0.9245%; ML-2 %inh [6, 15]: -0.8259%; MOLM-13 %inh [7, 16]: 0.9251%; CMS %inh [8, 17]: -1.661%"
"C[C@@H]1C[C@H]2[C@@H]3C[C@H](F)C4=CC(=O)C=C[C@]4(C)[C@@]3(F)[C@@H](O)C[C@]2(C)[C@@]1(O)C(=O)CO [SJ000287102-3, FLUMETHASONE]",4.435,4.356,-0.9154,-0.252,4.189,1.1,0.6987,2.822,–
